Consider seven compounds from patent publication US20190298745A1, “COMPOSITION FOR CONTROLLING SECRETION OF PROSTASOMES AND USE THEREOF” (Industrial Cooperation Foundation Chonbuk National, priority 2018, published 2019).

One assay deals with mouse oocytes. The assay can be described thus: In vitro fertilization test. Particulars: sperms fused with prostasomes obtained with or without pretreatment by regulator, reacted with oocytes, 36 hours; FIG. 6. It counts as cell-based. Here is the method: In order to perform the in vitro fertilization test, the method of Ren et al. (Ren et al., Nature 413, 603-609 (2001)) was modified and used. A 10 to 12-week-old female mouse was injected with pregnant mare serum gonadotropin (PMSG) (5 IU; Sigma-Aldrich). After 48 hours, the mouse was injected with human chorionic gonadotropin (hCG) (5 IU; Sigma-Aldrich). After 14 hours of the last injection, uterine tubes were removed and perfused with IVF medium (Medicult, USA), and flown oocytes were collected using a low magnification microscope.
The collected oocytes were resuspended in IVF medium and were cultured with prostasomes which were obtained in the presence or absence of the regulator of the intracellular calcium signaling second messenger, causing fertilization reaction. The heated mineral oil was overlaid on top of the medium to block the outside air. After 36 hours of the culture, the total number of oocytes contained in the culture medium was counted under a microscope, and cells above the two-cell stage were counted. The fertilization rate was calculated using the following formula. The case that the sperms that had undergone the same fusion process without prostasome treatment were cultured with about 15 oocytes was referred to as 100%. The results are illustrated in FIG. 6. […]

Assay [1] has as its system DU-145, human prostate cancer cell line. As to the kind of experiment: Intracellular calcium measurement (fluo-3, confocal microscopy). It counts as cell-based. Particulars: for continuous increase of [Ca2+]i by KCl treatment: pretreatment with antagonist before KCl, FIG. 2B-D. Here is the method: DU-145, human prostate cancer cell line, was pretreated with a regulator of intracellular calcium (Ca^2+) signaling second messenger, and the intracellular calcium signaling pattern thereof was analyzed. The concentration of intracellular calcium was measured by the following method: A cell suspension pretreated with a fluo-3 (molecular probe, USA) was titrated in a confocal dish (SPL, Seoul, Korea) coated with poly-L-lysine (Sigma-Aldrich, USA) and reacted for 20 minutes in a CO2 incubator to attach the cells. Then, the intracellular calcium amount was measured by a confocal microscopy system of Nikon Co, using the method of Tsien et al. (Tsien et al., Nature 295, 68-71 (1982)), and the results are illustrated in FIG. 2.
In general terms: Calcium flux is commonly read through the fluorescence of an indicator in the cells.

The test system is the same in assay [2]. The assay can be described thus: Western blotting of prostasome (exosomal) marker proteins in prostasomes from culture supernatant. It counts as cell-based. Here is the method:
Specifically, the prostate cancer cell line DU-145 were cultured in DMEM (GIBCO/Invitrogen, USA) supplemented with 10% exosome-free FBS (GIBCO/Invitrogen, USA) and 1% antibiotics-antimycotic (GIBCO/Invitrogen, USA) under the conditions of 37° C. and 5% CO2. The cell culture was collected and centrifuged at 3,000 rpm for 30 minutes to separate the supernatant. The supernatant was centrifuged at 15,000×g for 20 minutes using a Beckman's high-speed centrifuge, and the supernatant was separated again. The supernatant was centrifuged at 105,000×g for 2 hours using a high-speed centrifuge to obtain a precipitate. The collected precipitate was resuspended in the same buffer. The first eluted fraction was collected using sephadex G-200 (Sigma, USA), centrifuged again, and then suspended for use. 20 μg of protein was inactivated in 5× sample buffer at 100° C. for 5 minutes and then electrophoresed on a 10% SDS polyacrylamide gel. The separated proteins were transferred to a PVDF membrane and blocked in 2% BSA for 90 minutes. The respective HSP70, β-actin, Rab5 and LAMP1 antibodies were placed overnight at 4° C. in a ratio of 1:1,000 and then washed three times for 10 minutes with tris-buffered saline Tween-20 (TBST) buffer. The secondary antibodies were diluted at a ratio of 1:1,000 and allowed to adhere at room temperature for 2 hours. The membranes washed three times for 15 minutes with TBST buffer were treated with ECL (Bio-Rad, USA), and the amount of the protein expression was measured with LAS-500 (GE Healthcare Life Science, USA). DU-145, prostate cancer cell line, was treated with KCl, which induces cell membrane depolarization. Western blotting was performed to identify changes in prostasome-related protein expression. Specifically, the cells were cultured with KCl at various concentrations (0, 5, 10, 25, 50 and 100 mM) for 1 hour, and prostasomes were prepared from the culture supernatant by the method described in Experimental Example 1 and subjected to Western blotting. Further, cells were cultured with 25 mM KCl for various times (0, 10, 30, 60, 120 and 180 minutes) and subjected to Western blotting. The results are illustrated in FIG. 1. Furthermore, DU-145, human prostate cancer cell line was pretreated with a regulator of intracellular calcium (Ca^2+) signaling second messenger to analyze the change in the prostasome-related protein expression. Specifically, DU-145 cells were treated with various antagonists (regulator of intracellular calcium signaling second messenger) such as 100 μg/ml heparin (selective IP3 receptor inhibitor), 50 μM 8-Br-cADPR (antagonist of cADPR) and 1 μM NED-19 (antagonist of NAADP) together with 25 mM KCl. Prostasomes were prepared from the culture supernatant by the method described in Experimental Example 1, and Western blotting was performed. All antagonists were preincubated for 30 minutes before KCl treatment, and the cells were cultured for an additional 1 hour after KCl treatment. The results are illustrated in FIG. 3. Capsaicin (Sigma Aldrich, Mo., USA), which induces intracellular calcium (Ca^2+) signaling, was used to confirm the change in prostasome-related protein expression according to capsaicin treatment in DU-145, human prostate cancer cell line by Western blot. Specifically, the cells were cultured with capsaicin at various concentrations (0, 12.5, 25, 50, 100 and 200 μM) for 3 hours, and prostasomes were prepared from the culture supernatant by the method described in Example 2 and subjected to Western blotting, The cells were also cultured with 50 μM capsaicin for various times (0, 10, 30, 60, […], 120 and 180 minutes) and subjected to Western blotting. The results are illustrated in FIG. 4.
In general terms: In western blotting, separated proteins are transferred to a membrane and probed.

Another assay concerns C57BL/6 mice. The assay can be described thus: In vivo fertilization test in mice (number of pups). Further details: species or system mouse. Particulars: male C57BL/6 mice, 50 mg/kg intraperitoneally twice daily for 2 weeks, then mating 1:1 for 48 hours; FIG. 7. Here is the method:
The number of pups was measured in the mouse breeding process to confirm the increase of reproductive ability due to the promotion of the prostasome secretion (Nambu University's animal test approval number #201604), 7-week-old male C57BL/6 mice were randomly assigned into three groups and adapted to the breeding conditions. The groups were divided into the normal untreated group, the solvent-[…] group, and the capsaicin-treated group. Capsaicin was prepared at a high concentration (100-fold) in DMSO, then diluted in phosphate buffered saline (PBS, pH 7.2), and used as an injection. In the solvent-treated group, PBS (200 μl) diluted with the same volume of DMSO was administered. Twice daily capsaicin (50 mg/kg) and placebo were intraperitoneally injected into each experimental group for 2 weeks. Then, each mouse was caged with a female c57BL/6 mouse adapted for the same breeding condition, mating them at a ratio of 1:1 for 48 hours. The mating started at 6 pm, and the mating success was evaluated by confirming that the plaque was formed at the vaginal entrance at 9:00 am, but it was maintained for 48 hours considering the possibility of premature dropping. Then, only the female was separated from each cage, and the separate breeding was performed for each group. After the gestation period (about 21 days), the number of pups was counted. […]

The subject of the next assay is mouse sperms. As to the kind of experiment: Sperm motility test (CASA) of sperms fused with prostasomes from PPECs. It counts as cell-based. Particulars: sperms fused with PPECs-derived prostasomes (with or without pretreatment of the prostate cells), vs no fusion; FIG. 5. Here is the method:
The prostasomes of the mouse were obtained by incising the mouse abdominal cavity and obtaining the prostate under the bladder through microsurgery (Drost et al, 2016, Nat Protoc. 11(2): 347-358). Later, the effluent from the prostate gland was collected from the prostate and diluted using BWW (Bigger, Whitten, arid Whittingham) medium [10 mM Hepes, 20 mM sodium lactate, 5 mM glucose, 0.25 mM sodium pyruvate, penicillin G (80 mg/L), streptomycin sulfate (50 mg/L), 95 mM NaCl, 4.8 mM KCl, 1.3 mM CaCl2, 1.2 mM KH2PO4, and 1.2 mM MgSO4 in 25 mM NaHCO3 buffer, pH 7.4]). The supernatant was used to collect prostasomes by the same method as described above.
To collect mouse sperms which are not fused with prostasomes, the tail epididymis of a male mouse was surgically removed, and blood and adipose tissue were removed using ophthalmic scissors. The epididymis was punctured with a 30 gauge sterilized needle and pinched by tweezers to release a large number of sperms. […]
Specifically, the isolated sperms were diluted with a weak alkaline buffer with 0.32 M sucrose or binding buffer 150 mM NaCl, 1 mM CaCl2, 1 mM MgCl2, 5 mM glucose with 2 mM Hepes (pH 8.0)/20 mM MES (pH 5.0, binding buffer). […] The sperm motility rate was measured using a computer assisted sperm analysis (CASA) device (IVOS, Hamilton Thorne Biosciences, USA). […]

Entries after “also recorded” stand apart in the source; their conditions may differ.

Regarding `C1CCC[C@H]2CCCN3CC[C@@H](CCCCCC[C@@H]4CCCN5CC[C@@H](CC1)O[C@@H]45)O[C@@H]23` [Xestospongin C], in the assay with mouse oocytes, the “fertility (fertilization rate)” value was “reduced to be similar to that of the negative control”. Further, in assay [1], the “continuous increase of [Ca2+]i by KCl treatment” value (shortened to “continuous increase of [Ca2+]i”) was “suppressed”.
Consider `N=c1c2nc(Br)n3c2ncn1C1OC(COP(=O)(O)OP(=O)(O)OCC2OC3C(O)C2O)C(O)C1O` (centres unmarked) [8-br-cADPR, 8-Br-cADPR], for which the “continuous increase of [Ca2+]i” value in assay [1] is recorded as “suppressed”.
Consider `COc1ccc([C@H]2N[C@H](C(=O)O)Cc3c2[nH]c2ccccc32)cc1CN1CCN(c2ccccc2F)CC1` [Ned-19], for which the “HSP70 expression (KCl-induced) with antagonist” value in assay [2] (100 μg/ml heparin, 50 μM 8-Br-cADPR or 1 μM NED-19 preincubated 30 minutes, then 25 mM KCl 1 hour, FIG. 3) was “did not show the inhibitory effect”. Moreover, the “continuous increase of [Ca2+]i” value in assay [1] is reported as “not suppressed”.
With heparin, the “fertility (fertilization rate)” value in the assay on mouse oocytes is reported as “reduced to be similar to that of the negative control”.
Turning to `COc1cc(CNC(=O)CCCC/C=C/C(C)C)ccc1O` [capsaicin], the number of pups result with C57BL/6 mice is given as “increased”. In addition, the “protein expression of HSP70, LAMP1 and Rab5” value in assay [2] (50 μM capsaicin for 0-180 minutes, FIG. 4B) is reported as “increased in a time-dependent manner”. The “protein expression of HSP70” value in assay [2] (capsaicin 0, 12.5, 25, 50, 100 and 200 μM for 3 hours, FIG. 4A) is “increased in a concentration-dependent manner”.
For `O=P(O)(O)O[C@@H]1[C@H](O)[C@H](O)[C@@H](OP(=O)(O)O)[C@H](OP(=O)(O)O)[C@H]1O` [D-myo-IP3, D-myo-Inositol 1,4,5-triphosphate], in the assay on mouse sperms, the sperm motility rate entry is recorded as “doubling; also recorded: doubled”.
For the compound `[Cl-].[K+]` [KCl], the HSP70 expression result in assay [2] (25 mM KCl alone without an antagonist, 1 hour, FIG. 3) is “increased”. Besides, the “protein expression of HSP70 and LAMP1” value in assay [2] (25 mM KCl for 0, 10, 30, 60, 120 and 180 minutes, FIG. 1B) is recorded as “increased in a time-dependent manner”. The “protein expression of HSP70, Rab5 and LAMP1 (exosomal markers)” value in assay [2] (KCl 0, 5, 10, 25, 50 and 100 mM for 1 hour, FIG. 1A) is given as “increased in a concentration-dependent manner”. For the same compound, the “intracellular calcium ([Ca2+])” value in assay [1] (120 μM KCl, FIG. 2A) was “rapidly increased”.
